Measured values as given in patent US12077503B2, “Substituted cyclic amides and their use as herbicides” (FMC CORPORATION, priority 2015, dated 2024).

Key:
Format in all cases: in vivo
[1] = tested on: poinsettia, wild (wild poinsettia, Euphorbia heterophylla); assay: Test E preemergence; settings: scale 0 to 100
Method in brief: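 Seeds sown in silt loam treated preemergence, or plants 2 to 18 cm tall in peat-based potting medium treated postemergence, with test chemical in a non-phytotoxic solvent mixture containing surfactant. Kept in greenhouse 14 to 21 d, then visually rated against controls on a 0–100 scale (0 no effect, 100 complete control).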

[2] = tested on: corn (Zea mays); assay: Test G Post-Emergence Protocol; settings: Zea mays, post-emergence, 312 h; for plant injury at 15.625 g/ha: 15.625 g ai/ha, evaluated after 13 days (100=total damage to plant; 0=no damage to plant), read-out: Corn damage rating; for plant injury at 62.5 g/ha: 62.5 g ai/ha, read-out: Corn damage rating (100=total damage to plant; 0=no damage to plant); for plant injury at 62.5 g/ha / plant injury at 250 g/ha: evaluated after 13 days; for plant injury at 250 g/ha: 250 g ai/ha, read-out: damage to plant, Corn (100=total damage to plant; 0=no damage to plant)
Method: (§1) Seeds of corn (Zea mays), giant foxtail (Setaria faberi), barnyardgrass (Echinochloa crus-galli), ivy-leaved morning glory (Ipomoea hederacea), redroot pigweed (Amaranthus retroflexus) and velvetleaf (Abutilon theophrasti) were sown in standard soil in pots. After cultivation for 8 days under controlled conditions in a glasshouse (at 24/16° C., day/night; 14 hours light; 65% humidity), the plants were sprayed with an aqueous spray solution derived from the formulation of the technical active ingredient in acetone/water (50:50) solution containing 0.5% Tween 20 (polyoxyethylene sorbitan monolaurate, CAS RN 9005-64-5) to give a final dose of 15.625, 62.5 or 250 g/ha of test compound.
(§2) The test plants were then grown on under controlled conditions in a glasshouse (at 24/16° C., day/night; 14 hours light; 65% humidity) and watered twice daily. After 13 days the test was evaluated (100=total damage to plant; 0=no damage to plant). A dash (-) means no test result.

[3] = tested on: giant foxtail (Setaria faberi); assay: Test G Post-Emergence Protocol; settings: Setaria faberi, post-emergence, 312 h; for pest or weed control at 15.625 g/ha: 15.625 g ai/ha, evaluated after 13 days (100=total damage to plant; 0=no damage to plant), read-out: Foxtail, Giant damage rating; for pest or weed control at 62.5 g/ha: 62.5 g ai/ha, read-out: Foxtail, Giant damage rating (100=total damage to plant; 0=no damage to plant); for pest or weed control at 62.5 g/ha / pest or weed control at 250 g/ha: evaluated after 13 days; for pest or weed control at 250 g/ha: 250 g ai/ha, read-out: damage to plant, Foxtail, Giant (100=total damage to plant; 0=no damage to plant)
Method: as §1, §2

[4] = tested on: redroot pigweed (Amaranthus retroflexus); assay: Test G Post-Emergence Protocol; settings: Amaranthus retroflexus, post-emergence, 312 h; for pest or weed control at 15.625 g/ha: 15.625 g ai/ha, evaluated after 13 days (100=total damage to plant; 0=no damage to plant), read-out: Pigweed, Redroot damage rating; for pest or weed control at 62.5 g/ha: 62.5 g ai/ha, read-out: Pigweed, Redroot damage rating (100=total damage to plant; 0=no damage to plant); for pest or weed control at 62.5 g/ha / pest or weed control at 250 g/ha: evaluated after 13 days; for pest or weed control at 250 g/ha: 250 g ai/ha, read-out: damage to plant, Pigweed, Redroot (100=total damage to plant; 0=no damage to plant)
Method: as §1, §2

[5] = tested on: ivy-leaved morning glory (Ipomoea hederacea); assay: Test G Post-Emergence Protocol; settings: Ipomoea, post-emergence, 312 h; for pest or weed control at 15.625 g/ha: 15.625 g ai/ha, evaluated after 13 days (100=total damage to plant; 0=no damage to plant), read-out: Morningglory, Ivy-leaved damage rating; for pest or weed control at 62.5 g/ha: 62.5 g ai/ha, read-out: Morningglory, Ivy-leaved damage rating (100=total damage to plant; 0=no damage to plant); for pest or weed control at 62.5 g/ha / pest or weed control at 250 g/ha: evaluated after 13 days; for pest or weed control at 250 g/ha: 250 g ai/ha, read-out: damage to plant, Morningglory, Ivy-leaved (100=total damage to plant; 0=no damage to plant)
Method: as §1, §2

[6] = tested on: barnyardgrass (Echinochloa crus-galli); assay: Test G Post-Emergence Protocol; settings: Echinochloa crus-galli, post-emergence, 312 h; for pest or weed control at 15.625 g/ha: 15.625 g ai/ha, evaluated after 13 days (100=total damage to plant; 0=no damage to plant), read-out: Barnyardgrass damage rating; for pest or weed control at 62.5 g/ha: 62.5 g ai/ha, read-out: Barnyardgrass damage rating (100=total damage to plant; 0=no damage to plant); for pest or weed control at 62.5 g/ha / pest or weed control at 250 g/ha: evaluated after 13 days; for pest or weed control at 250 g/ha: 250 g ai/ha, read-out: damage to plant, Barnyardgrass (100=total damage to plant; 0=no damage to plant)
Method: as §1, §2

[7] = tested on: velvetleaf (Abutilon theophrasti); assay: Test G Post-Emergence Protocol; settings: Abutilon theophrasti, post-emergence, 312 h; for pest or weed control at 15.625 g/ha: 15.625 g ai/ha, evaluated after 13 days (100=total damage to plant; 0=no damage to plant), read-out: Velvetleaf damage rating; for pest or weed control at 62.5 g/ha: 62.5 g ai/ha, read-out: Velvetleaf damage rating (100=total damage to plant; 0=no damage to plant); for pest or weed control at 62.5 g/ha / pest or weed control at 250 g/ha: evaluated after 13 days; for pest or weed control at 250 g/ha: 250 g ai/ha, read-out: damage to plant, Velvetleaf (100=total damage to plant; 0=no damage to plant)
Method: as §1, §2

[8] = tested on: corn (Zea mays); assay: Test G Pre-Emergence Protocol; settings: Zea mays, pre-emergence, 312 h, evaluated after 13 days; for plant injury at 15.625 g/ha: 15.625 g ai/ha; for plant injury at 15.625 g/ha / plant injury at 250 g/ha: read-out: Corn damage rating (100=total damage to plant; 0=no damage to plant); for plant injury at 62.5 g/ha: 62.5 g ai/ha, 100=total damage to plant, 0=no damage to plant, read-out: plant damage rating, Corn; for plant injury at 250 g/ha: 250 g ai/ha
Method: as §1, with “one day” for “8 days”
as §2

[9] = tested on: giant foxtail (Setaria faberi); assay: Test G Pre-Emergence Protocol; settings: Setaria faberi, pre-emergence, 312 h, evaluated after 13 days; for pest or weed control at 15.625 g/ha: 15.625 g ai/ha; for pest or weed control at 15.625 g/ha / pest or weed control at 250 g/ha: read-out: Foxtail, Giant damage rating (100=total damage to plant; 0=no damage to plant); for pest or weed control at 62.5 g/ha: 62.5 g ai/ha, 100=total damage to plant, 0=no damage to plant, read-out: plant damage rating, Foxtail, Giant; for pest or weed control at 250 g/ha: 250 g ai/ha
Method: as §1, with “one day” for “8 days”
as §2

CN1CC(c2ccc(C(F)(F)F)cc2)C(C(=O)Nc2ccccc2S(C)(=O)=O)C1=O (centres unmarked) [Compound 624]
Plant response rating: Poinsettia, Wild ([1]; 31 g ai/ha): 20
Plant response rating: Poinsettia, Wild ([1]; 62 g ai/ha): 20
Plant response rating: Poinsettia, Wild ([1]; 125 g ai/ha): 30
Plant response rating: Poinsettia, Wild ([1]; 250 g ai/ha): 40

CN1CC(c2cccc(C(F)(F)F)c2)C(C(=O)Nc2ccccc2S(C)(=O)=O)C1=O (centres unmarked) [Compound 637]
Plant response rating: Poinsettia, Wild ([1]; 31 g ai/ha): 0
Plant response rating: Poinsettia, Wild ([1]; 62 g ai/ha): 0
Plant response rating: Poinsettia, Wild ([1]; 125 g ai/ha): 20
Plant response rating: Poinsettia, Wild ([1]; 250 g ai/ha): 25

Cc1ccc([C@H]2CN(C)C(=O)[C@@H]2C(=O)Nc2cccnc2F)cc1 [Compound 1398]
plant injury at 15.625 g/ha [2]: 30%
plant injury at 62.5 g/ha [2]: 70%
plant injury at 250 g/ha [2]: 80%
pest or weed control at 15.625 g/ha [3]: 80%
pest or weed control at 62.5 g/ha [3]: 80%
pest or weed control at 250 g/ha [3]: 80%
pest or weed control at 15.625 g/ha [4]: 0%
pest or weed control at 62.5 g/ha [4]: 50%
pest or weed control at 250 g/ha [4]: 60%
pest or weed control at 15.625 g/ha [5]: 0%
pest or weed control at 62.5 g/ha [5]: 40%
pest or weed control at 250 g/ha [5]: 60%
pest or weed control at 15.625 g/ha [6]: 80%
pest or weed control at 62.5 g/ha [6]: 80%
pest or weed control at 250 g/ha [6]: 80%
pest or weed control at 15.625 g/ha [7]: 0%
pest or weed control at 62.5 g/ha [7]: 40%
pest or weed control at 250 g/ha [7]: 40%
plant injury at 15.625 g/ha [8]: 20%
plant injury at 62.5 g/ha [8]: 80%
plant injury at 250 g/ha [8]: 90%
pest or weed control at 15.625 g/ha [9]: 90%
pest or weed control at 62.5 g/ha [9]: 90%
pest or weed control at 250 g/ha [9]: 90%

Cc1ccc([C@H]2CN(C)C(=O)[C@@H]2C(=O)Nc2ccc(F)nc2F)cc1 [Compound 1402]
plant injury at 15.625 g/ha [2]: 70%
plant injury at 62.5 g/ha [2]: 80%
plant injury at 250 g/ha [2]: 80%
pest or weed control at 15.625 g/ha [3]: 80%
pest or weed control at 62.5 g/ha [3]: 80%
pest or weed control at 250 g/ha [3]: 80%
pest or weed control at 15.625 g/ha [4]: 10%
pest or weed control at 62.5 g/ha [4]: 60%
pest or weed control at 250 g/ha [4]: 60%
pest or weed control at 15.625 g/ha [5]: 10%
pest or weed control at 62.5 g/ha [5]: 40%
pest or weed control at 250 g/ha [5]: 60%
pest or weed control at 15.625 g/ha [6]: 80%
pest or weed control at 62.5 g/ha [6]: 80%
pest or weed control at 250 g/ha [6]: 80%
pest or weed control at 15.625 g/ha [7]: 0%
pest or weed control at 62.5 g/ha [7]: 30%
pest or weed control at 250 g/ha [7]: 50%
plant injury at 15.625 g/ha [8]: 60%
plant injury at 62.5 g/ha [8]: 80%
plant injury at 250 g/ha [8]: 90%
pest or weed control at 15.625 g/ha [9]: 90%
pest or weed control at 62.5 g/ha [9]: 90%
pest or weed control at 250 g/ha [9]: 90%
